Measurements taken from US6765010B2, “Compositions and methods for enhancing analgesic potency of tramadol and attenuating its adverse side effects” (Pain Therapeutics, Inc., priority 1999, dated 2004).
Where two headings read alike, the source gives them in different places.

Legend:
[1] = tested on: human subjects/patients with pain following dental surgery; assay type: in vivo
[2] = tested on: human subjects/patients with pain following dental surgery; assay: Dental surgery pain study: visual analog scale pain intensity difference (VAS-PID, VAS-SPID); assay type: in vivo; conditions: LOCF; for Hourly Visual Analog-PID (VAS-PID) score, Mean / Hourly Visual Analog-PID (VAS-PID) score, Median: ITT subjects
[3] = tested on: human subjects/patients with pain following dental surgery; assay: Dental surgery pain study: remedication (rescue medication); assay type: in vivo; conditions: ITT
Description: (§1) For this randomized, double-blind, active-controlled and placebo-controlled, parallel-group study, human subjects were randomized into one of the following five treatment groups:
(§2) A positive control (T, Group 4) was used to determine the sensitivity of the clinical end points. A negative control (placebo, Group 5) was used to establish the frequency and magnitude of changes in clinical end points that may occur in the absence of an active treatment. A single oral dose of study medication was administered when the subject experienced moderate to severe pain following the surgical extraction of three or four third molars. At least one of the molars was required to be mandibular bony impacted.
The subject was then given a rescue medication and discontinued from study. The subject was encouraged to wait at least until Hour 2 after administration of the study medication before using rescue medication. Subjects remedicating earlier than Hour 1 were not included in the analysis for efficacy. Subjects not remedicating during the eight hours of evaluation received a diary card and asked to record the time of remedication after they left the clinic.
Time to remedication (or rescue medication) was analyzed using the Kaplan-Meier estimate to compute the survival distribution function. The distribution was compared among groups using the Log Rank Test. A subject was considered censored at eight hours if remedication had not occurred. Pairwise comparisons were made using the LIFETEST methodology. Hochberg's procedure was used to control the family-wise type 1 error. Time to Onset of Meaningful Relief (determined by the stopwatch) was similarly analyzed. […] In all the above analyses baseline pain intensity could be used as a stratification factor. […] The sample size was estimated from historical data and from practical considerations rather than from calculation of expected measured differences.

[4] = tested on: human subjects/patients with pain following dental surgery; assay: Dental surgery pain study: global evaluations; assay type: in vivo; conditions: ITT
Description: as §1, §2
At the end of eight hours, or at the termination of hourly observations if sooner than eight hours, a global assessment was made by the subject and the observer in response to the question, “How do you rate the pain relief?” with response choices of excellent, very good, good, fair or poor. Assessment of adverse events continued for at least one hour following rescue medication. Subjects not completing at least the Hour 1 observation period were considered not evaluable for efficacy and were replaced.

[5] = in vivo, cited from earlier work
[6] = tested on: α2-adrenoreceptors; conditions: cited from earlier work

For `COc1cccc([C@@]2(O)CCCC[C@@H]2CN(C)C)c1.Cl` (racemic) [tramadol, (1RS,2RS)-2[(dimethylamino)-methyl]-1-(3-methoxyphenyl)-cyclohexanol HCL], the “Hourly Pain Relief Score (PAR), Mean” value ([1]; Hour 0.5, ITT) was 0.28, the “Hourly Pain Relief Score (PAR), Median” value ([1]; Hour 0.5, ITT) was 0 and the “Hourly Pain Relief Score (PAR), Mean” value ([1]; Hour 1, ITT) was 0.40. The “Hourly Pain Relief Score (PAR), Median” value ([1]; Hour 1, ITT) was 0, the “Hourly Pain Relief Score (PAR), Mean” value ([1]; Hour 2, ITT) was 0.76 and the “Hourly Pain Relief Score (PAR), Median” value ([1]; Hour 2, ITT) was 0. The “Hourly Pain Relief Score (PAR), Mean” value ([1]; Hour 3, ITT) was 0.80, the “Hourly Pain Relief Score (PAR), Median” value ([1]; Hour 3, ITT) was 0 and the “Hourly Pain Relief Score (PAR), Mean” value ([1]; Hour 4, ITT) was 0.94. For the same molecule, the “Hourly Pain Relief Score (PAR), Median” value ([1]; Hour 4, ITT) was 0, the “Hourly Pain Relief Score (PAR), Mean” value ([1]; Hour 5, ITT) was 0.84 and the “Hourly Pain Relief Score (PAR), Median” value ([1]; Hour 5, ITT) was 0. For the same molecule, the “Hourly Pain Relief Score (PAR), Mean” value ([1]; Hour 6, ITT) was 0.86, the “Hourly Pain Relief Score (PAR), Median” value ([1]; Hour 6, ITT) was 0 and the “Hourly Pain Relief Score (PAR), Mean” value ([1]; Hour 7, ITT) was 0.82. The “Hourly Pain Relief Score (PAR), Median” value ([1]; Hour 7, ITT) was 0, the “Hourly Pain Relief Score (PAR), Mean” value ([1]; Hour 8, ITT) was 0.86 and the “Hourly Pain Relief Score (PAR), Median” value ([1]; Hour 8, ITT) was 0. The “TOTPAR up to 4 Hours, Mean” value ([1]; ITT, single oral dose, LOCF) was 3.18, the “TOTPAR up to 4 Hours, Median” value ([1]; ITT, single oral dose, LOCF) was 2 and the “TOTPAR up to 6 Hours, Mean” value ([1]; ITT, single oral dose, LOCF) was 4.88. For the same molecule, the “TOTPAR up to 6 Hours, Median” value ([1]; ITT, single oral dose, LOCF) was 2, the “TOTPAR up to 8 Hours, Mean” value ([1]; ITT, single oral dose, LOCF) was 6.56 and the “TOTPAR up to 8 Hours, Median” value ([1]; ITT, single oral dose, LOCF) was 2. For the same molecule, the “Hourly Visual Analog-PID (VAS-PID) score, Mean” value (“Hourly Visual Analog-PID … Mean” below) ([2]; Hour 0.5) was −6.16, the “Hourly Visual Analog-PID (VAS-PID) score, Median” value (“Hourly Visual Analog-PID … Median” for short) ([2]; Hour 0.5) was −4 and the “Hourly Visual Analog-PID … Mean” value ([2]; Hour 1) was −7.54. For the same molecule, the “Hourly Visual Analog-PID … Median” value ([2]; Hour 1) was −7, the “Hourly Visual Analog-PID … Mean” value ([2]; Hour 2) was −2.58 and the “Hourly Visual Analog-PID … Median” value ([2]; Hour 2) was −4. For the same molecule, the “Hourly Visual Analog-PID … Mean” value ([2]; Hour 3) was −1.76, the “Hourly Visual Analog-PID … Median” value ([2]; Hour 3) was −2 and the “Hourly Visual Analog-PID … Mean” value ([2]; Hour 4) was 1.50. The “Hourly Visual Analog-PID … Median” value ([2]; Hour 4) was −2, the “Hourly Visual Analog-PID … Mean” value ([2]; Hour 5) was 1.16 and the “Hourly Visual Analog-PID … Median” value ([2]; Hour 5) was −2. The “Hourly Visual Analog-PID … Mean” value ([2]; Hour 6) was 1.36, the “Hourly Visual Analog-PID … Median” value ([2]; Hour 6) was −2 and the “Hourly Visual Analog-PID … Mean” value ([2]; Hour 7) was −1.10. For the same molecule, the “Hourly Visual Analog-PID … Median” value ([2]; Hour 7) was −2, the “Hourly Visual Analog-PID … Mean” value ([2]; Hour 8) was −0.02 and the “Hourly Visual Analog-PID … Median” value ([2]; Hour 8) was −2. The “VAS-SPID up to 4 Hours, Mean” value ([2]; ITT, single oral dose) was −16.54, the “VAS-SPID up to 4 Hours, Median” value ([2]; ITT, single oral dose) was −19 and the “VAS-SPID up to 6 Hours, Mean” value ([2]; ITT, single oral dose) was −14.02. The “VAS-SPID up to 6 Hours, Median” value ([2]; ITT, single oral dose) was −18, the “VAS-SPID up to 8 Hours, Mean” value ([2]; ITT, single oral dose) was −15.14 and the “VAS-SPID up to 8 Hours, Median” value ([2]; ITT, single oral dose) was −27. The “Time to Remedication up to 8 Hours, Median” value ([3]; Kaplan-Meier) was 2.48 h, the “Time to Remedication up to 24 Hours, Median” value ([3]; Kaplan-Meier) was 2.48 h and the “Percent of Subject who take Remedication up to 8 hours, No” value ([3]; first section of Table 9) was 15 (30.0%) n (%). The “Percent of Subject who take Remedication up to 8 hours, Yes” value ([3]; first section of Table 9) was 35 (70.0%) n (%), the “Percent of Subject who take Remedication up to 8 hours, No” value ([3]; second section of Table 9) was 8 (16.0%) n (%) and the “Percent of Subject who take Remedication up to 8 hours, Yes” value ([3]; second section of Table 9) was 42 (84.0%) n (%). The “Number of Subjects taken Rescue Medication” value ([3]; up to 8 Hours) was 35 subjects, the “Number of Subjects taken Rescue Medication” value ([3]; up to 24 Hours) was 42 subjects and the “Global Evaluation, Observer Evaluation: Excellent” value [4] was 2 (4.0%) n (%). For the same molecule, the “Global Evaluation, Observer Evaluation: Fair” value [4] was 13 (26.0%) n (%), the “Global Evaluation, Observer Evaluation: Good” value [4] was 5 (10.0%) n (%) and the “Global Evaluation, Observer Evaluation: Poor” value [4] was 25 (50.0%) n (%). The “Global Evaluation, Observer Evaluation: Very Good” value [4] was 5 (10.0%) n (%), the “Global Evaluation, Subject Evaluation: Excellent” value [4] was 1 (2.0%) n (%) and the “Global Evaluation, Subject Evaluation: Fair” value [4] was 13 (26.0%) n (%). The “Global Evaluation, Subject Evaluation: Good” value [4] was 4 (8.0%) n (%), the “Global Evaluation, Subject Evaluation: Poor” value [4] was 26 (52.0%) n (%) and the “Global Evaluation, Subject Evaluation: Very Good” value [4] was 6 (12.0%) n (%). For the same molecule, the “potency relative to morphine” value ([5]; iv) was “approximately one-tenth”, the “oral analgesic potency versus morphine” value ([5]; po) was “equipotent to oral morphine 30 mg” and the “affinity for α2-adrenoreceptors” value [6] was “does not have affinity”.
